Source: article PMC10999085, “Synthesis, anticancer evaluation, molecular docking and ADME study of novel pyrido[4ʹ,3ʹ:3,4]pyrazolo[1,5-a]pyrimidines as potential tropomyosin receptor kinase A (TrKA) inhibitors” (BMC Chemistry, 2024)
In brackets after ≈: the same amount, converted by molar mass. Entries after “also recorded” stand apart in the source; their conditions may differ.

Columns and labels:
Assay type in all cases: cell-based, human
MCF7 cell line = assay: MTT assay, MCF7 cell line; details: 24 hr treatment, in % (unit assumed); for Cytotoxicity at 5 µg/l: MCF7, 5 µg/l; for Cytotoxicity at 10 µg/l: MCF7, 10 µg/l; for Cytotoxicity at 20 µg/l: MCF7, 20 µg/l
In short: (§1)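 Cells in RPMI-1640 with 10% FBS were seeded at 1.0x10^4 cells/well and cultured 48 h, then exposed to compound for 24 hr. Viability was measured by MTT reduction (4 hr), with formazan dissolved in DMSO and read at 570 nm, relative to untreated cells. Values are means of three independent triplicate experiments.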

HepG2 cell line = assay: MTT assay, HepG2 cell line; details: for Cytotoxicity at 5 µg/l: HepG2, 5 µg/l; for Cytotoxicity at 5 µg/l / Cytotoxicity at 10 µg/l / Cytotoxicity at 20 µg/l: MTT, 24 hr treatment, in % (unit assumed); for Cytotoxicity at 10 µg/l: HepG2, 10 µg/l; for Cytotoxicity at 20 µg/l: HepG2, 20 µg/l; for IC50: Homo sapiens, HepG2, MTT, read-out: IC50 (drug concentration that inhibited 50% of cell proliferation)
In short: as §1

HepG2 cells = assay: In-vitro cell cycle analysis (PI flow cytometry); details: for Cell cycle comment (phase of arrest): HepG2; for DNA content %G0-G1 / DNA content %G2/M / DNA content %Pre-G1 / DNA content %S: HepG2, compound at its IC50; for increase of the proportion of cells in the G2/M phase: HepG2, versus control
Procedure: HepG-2 cells are pre-cultured in 25 cm^2 cell culture flask. RPMI-1640 medium was used. Tested compounds 7b, 9c, 15b, 16a and 16c were used in the cell treatment at their IC50 by dissolving them in the required medium separately. The procedure was discussed in details in the ESI.
For cell cycle analysis, stained DNA from HepG2 cancer cells was treated with compounds 7b, 15b, 16a and 16c that induce cancer cell death by inhibiting TrKA. From the results in Table 5, it can be seen that the proportion of cells at phase in the pre-G1 of compounds 7b, 15b, 16a and 16c increased the proportion of cells at phase in the G2/M by about 4, 4, 2.5 and 3 folds, respectively.
HepG-2 cells were pre-cultured in 25 cm^2 cell culture flasks; RPMI-1640 medium was used. Tested compounds 7b, 15b, 16a and 16c were dissolved separately in the required medium and used in the cell treatment at their IC50. After overnight treatment the cells were collected and fixed gently with 70% (v/v) ethanol in PBS, incubated overnight at 4 °C, and resuspended in PBS containing 40 µg/ml propidium iodide (PI), 0.1 mg/ml RNase and 0.1% (v/v) Triton X-100 in the dark room at after 30 min at 37 °C, the cell cycle analysis was performed using a flow cytometer, equipped with an argon ion laser at a wavelength of 488 nm (Becton-Dickinson, San Josa, CA, USA) and the percentage of cells at G1, S and G2/M was also calculated.

SMILES	Cytotoxicity at 5 µg/l (MCF7 cell line)	Cytotoxicity at 10 µg/l (MCF7 cell line)	Cytotoxicity at 20 µg/l (MCF7 cell line)	Cytotoxicity at 5 µg/l (HepG2 cell line)	Cytotoxicity at 10 µg/l (HepG2 cell line)	Cytotoxicity at 20 µg/l (HepG2 cell line)	IC50 (HepG2 cell line) [ng/mL]	Cell cycle comment (phase of arrest) (HepG2 cells)	DNA content %G0-G1 (HepG2 cells) [%]	DNA content %G2/M (HepG2 cells) [%]	DNA content %Pre-G1 (HepG2 cells) [%]	DNA content %S (HepG2 cells) [%]	increase of the proportion of cells in the G2/M phase (HepG2 cells)
COc1ccc(NN=C2C(=O)NC(=O)c3c2nn2c(O)cc(C)nc32)cc1 [Compound 16c, 4-Hydroxy-7-(2-(4-methoxyphenyl)hydrazono)-2-methylpyrido[4ʹ,3ʹ:3,4]pyrazolo[1,5-a]pyrimidine-8,10(7H,9H)-dione]	56.81	62.79	79.61	59.17	70.57	84.32	3.43 (≈ 0.00935 µM)	arrest in cell cycle at the G2/M phase; also recorded: cell growth arrest@G2/M	41.61	26.45	12.07	31.94	~3 folds
COc1ccc(C=C2C(=O)NC(=O)c3c2nn2c(C)cc(C)nc32)cc1 [Compound 7b]	60.48	79.12	95.03	55.11	69.08	85.16	4.25 (≈ 0.0122 µM)	arrested in the cell cycle at G2/M phase; also recorded: arrest in cell cycle at the G2/M phase; also recorded: cell growth arrest@G2/M	38.42	34.70	24.89	26.88	about 4 folds
Cc1cc(O)n2nc3c(c2n1)C(=O)NC(=O)C3=NNc1ccccc1 [Compound 16a, 4-Hydroxy-2-methyl-7-(2-phenylhydrazono)pyrido[4ʹ,3ʹ:3,4]pyrazolo[1,5-a]pyrimid-ine-8,10(7H,9H)-dione]	55.09	57.34	77.25	54.39	66.36	72.80	3.56 (≈ 0.0106 µM)	arrest in cell cycle at the G2/M phase; also recorded: cell growth arrest@G2/M	42.11	21.74	15.33	36.15	~2.5 folds
